Reference: US20120270251A1, “INHIBITION OF THE ACTIVITY OF KINASE AND SYNTHETASE ENZYMES” (CSIR, priority 2009, published 2012)
Read-outs that look alike come from different tables or passages of the source.

What was measured:
Format in all cases: biochemical
[1] = molecular target: Escherichia coli deadenylylated glutamine synthetase (GS0) (Escherichia coli, UniProt P0A9C5); conditions: for Hill factor (h): allosteric sigmoidal model
[2] = test system: Saccharomyces cerevisiae hexokinase; assay: Hexokinase steady-state kinetics, ATP vs C8D-ATP
[3] = molecular target: T1, Escherichia coli acetate kinase (Escherichia coli, UniProt P0A6A3); assay: Acetate kinase steady-state kinetics, ATP vs C8D-ATP
T1 construct: purchased Sigma A7437
From the text: Hexokinase from Saccharomyces cerevisiae Type F-300 (Sigma, H4502) and Acetate kinase from E. coli (Sigma, A7437) were purchased. The human adenylate kinase (AK1) gene in vector pLIG-SC1 was obtained from the Structural Genomics Consortium (code AK1A). The His-tagged AK1 was produced in Escherichia coli Origami (DE3) and purified using the Bio-Rad Profinia Purification System. […] The Mycobacterium tuberculosis shikimate kinase gene in pET15b (Novagen) was obtained from the group of Chris Abell, Cambridge University, UK. The his-tagged MtSK was produced in E. coli BL21 (DE3) and purified using the Bio-Rad Profinia Purification System. The pure protein was dialysed against 50 mM Tris (pH 7.5) and 1,000 mM NaCl. Adenylylated (GS12) and deadenylylated (GS0) glutamine synthetase were prepared as outlined below.
The assay was incubated at 30° C. for 30 minutes and stopped by the addition of 1 μl of 50% TCA. The formation of ADP was analysed by HPLC.
The results are reflected in FIGS. 19 to 25. […] The best-fit to the data was obtained for the specified kinetic model using the non-linear regression algorithms as outlined using the GraphPad Prism® 5 software. […] These response curves were then used to define the KIE by the conventional estimation of KIE from KIE=vH/vD. The KIED was also determined using the following function: […]

[4] = molecular target: Escherichia coli adenylylated glutamine synthetase (GS12) (Escherichia coli, UniProt P0A9C5); conditions: for Hill factor (h): allosteric sigmoidal model
AK1 [5] = molecular target: T2, AK1 (Homo sapiens, UniProt P00568); assay: AK1 enzyme activity with ATP versus deuterated ATP
T2 sequence (P00568 1-194): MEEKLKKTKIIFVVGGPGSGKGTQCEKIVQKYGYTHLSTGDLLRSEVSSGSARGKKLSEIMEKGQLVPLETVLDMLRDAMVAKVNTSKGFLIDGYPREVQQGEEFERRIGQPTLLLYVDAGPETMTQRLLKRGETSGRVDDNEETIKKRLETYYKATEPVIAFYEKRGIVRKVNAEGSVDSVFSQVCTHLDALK
Protocol: The assay is carried out in the presence of ATP and AMP measuring the formation of ADP. […] A kinetic isotope effect is also obtained when comparing the activity of the enzyme when the reaction is carried out in the presence of AMP and deuterated AMP. A further KIE is obtained when both deuterated ATP and deuterated AMP are used in the reaction. […] The KIE is obtained by dividing the activity of the enzyme in the presence of the proteated species (vH) by the enzyme activity in the presence of the deuterated species (vD) and is vH/vD=0.5. […] The proposed basic reaction mechanisms by which all forms of kinase are regulated occurs via either the formation of an immonium species at N7, which in turn induces the formation of a carbene at C8 or via the delocalization of electrons away from the C8 rendering the C8 more acidic. An immonium species may be induced at N7 by (1) protonation via a coordinated HCO3^−, (2) carboxylation of the N7, or (3) the coordination of an amino acid side chain within the active site such as a arginine, glutamine, lysine or histidine. The different forms of regulation are then based on the mechanism by which the carbene formed at C8 is stabilized and the mechanism by which the C8-H is deprotonated or via the interaction of the protein coordinated amino acid side chains affecting the delocalization of electrons around the adenyl ring of the nucleotide.

[6] = molecular target: B. stearothermophilus phosphofructokinase (Geobacillus stearothermophilus, UniProt P00512); conditions: for Hill factor (h): allosteric sigmoidal model
AK1 [7] = molecular target: T2, AK1; assay: Effect of ATPS and C8-D ATPS on synthesis of ADP by AK1; conditions: 0.2-1.0 mM, 0.6 mM ATP, 0.6 mM AMP, pH 7.2
Protocol: Increasing concentrations of ATPS or C8-D ATPS were added; 0.2, 0.4, 0.6, 0.8, and 1.0 mM. Assays, in a final volume of 1 ml, were allowed to proceed for 45 mins at 37° C., before 6 μl 100% TCA was added to stop the reaction. […] The assay where no ATPS or C8-D ATPS was added produced 0.19 mM ADP.

[8] = tested model: Allosteric sigmoidal

T1 sequence (P0A6A3 whole entry): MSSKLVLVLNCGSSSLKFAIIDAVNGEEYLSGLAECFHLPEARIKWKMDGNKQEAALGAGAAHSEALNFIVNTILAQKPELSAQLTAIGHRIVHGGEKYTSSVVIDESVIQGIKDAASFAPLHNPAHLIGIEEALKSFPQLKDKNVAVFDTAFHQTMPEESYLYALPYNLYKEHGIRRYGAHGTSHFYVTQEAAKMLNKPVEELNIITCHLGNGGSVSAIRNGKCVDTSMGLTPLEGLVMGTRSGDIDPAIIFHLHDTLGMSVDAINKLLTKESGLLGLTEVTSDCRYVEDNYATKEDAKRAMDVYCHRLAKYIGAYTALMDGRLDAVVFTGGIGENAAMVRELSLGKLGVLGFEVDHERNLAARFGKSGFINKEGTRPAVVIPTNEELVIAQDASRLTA
Sequence of B. stearothermophilus phosphofructokinase (P00512 whole entry): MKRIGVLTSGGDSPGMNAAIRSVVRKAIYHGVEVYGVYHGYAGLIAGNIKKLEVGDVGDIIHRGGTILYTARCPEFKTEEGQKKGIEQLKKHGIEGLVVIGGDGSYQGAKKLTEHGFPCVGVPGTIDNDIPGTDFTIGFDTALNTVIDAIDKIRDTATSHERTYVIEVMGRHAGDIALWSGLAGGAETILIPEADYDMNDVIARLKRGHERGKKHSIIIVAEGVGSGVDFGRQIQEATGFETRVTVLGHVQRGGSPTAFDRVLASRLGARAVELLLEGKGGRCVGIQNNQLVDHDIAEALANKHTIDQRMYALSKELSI
Sequence of Escherichia coli adenylylated glutamine synthetase (GS12) (P0A9C5 2-469): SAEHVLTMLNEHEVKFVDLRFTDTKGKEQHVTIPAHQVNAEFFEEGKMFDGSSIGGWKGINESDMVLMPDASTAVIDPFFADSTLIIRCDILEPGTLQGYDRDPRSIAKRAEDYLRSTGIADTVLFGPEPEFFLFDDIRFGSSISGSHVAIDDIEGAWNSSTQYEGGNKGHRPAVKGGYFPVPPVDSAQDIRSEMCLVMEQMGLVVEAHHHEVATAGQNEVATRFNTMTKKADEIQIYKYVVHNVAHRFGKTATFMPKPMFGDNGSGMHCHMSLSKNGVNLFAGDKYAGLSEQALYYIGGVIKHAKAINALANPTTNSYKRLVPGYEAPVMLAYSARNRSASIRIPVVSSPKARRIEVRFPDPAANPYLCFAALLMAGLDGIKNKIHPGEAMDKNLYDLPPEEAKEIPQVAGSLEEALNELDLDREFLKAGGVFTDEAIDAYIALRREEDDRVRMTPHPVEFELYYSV
Sequence of Escherichia coli deadenylylated glutamine synthetase (GS0) (P0A9C5 2-469): as above

Compound	Hill factor (h) [1]	fit to kinetic model [1, 8]	fit to kinetic model ([1]; tested model: Michaelis-Menton)	fit to kinetic model [2, 8]	fit to kinetic model ([2]; tested model: Michaelis-Menton)	fit to kinetic model [3, 8]	fit to kinetic model ([3]; tested model: Michaelis-Menton)	Hill factor (h) [4]	fit to kinetic model [4, 8]	fit to kinetic model ([4]; tested model: Michaelis-Menton)	Hill factor (h) [6]	inhibition of AK1 (AK1 [7])	further results
Nc1ncnc2c1ncn2[C@@H]1O[C@H](COP(=O)(O)OP(=O)(O)OP(=O)(O)O)[C@@H](O)[C@H]1O [ATP, adenosine triphosphate, reference compound]	3.10	Allosteric sigmoidal	Fit ambiguous	Allosteric sigmoidal	Fit ambiguous	Allosteric sigmoidal	Fit ambiguous	1.77	Allosteric sigmoidal	Fit ambiguous	1.37		Hill factor (h) ([2]; allosteric sigmoidal model): 1.75; Hill factor (h) ([3]; allosteric sigmoidal model): 2.08; reduction in AK1 enzyme activity using ATP compared with ATP deuterated at position C8 (AK1 [5]; low ATP concentrations): 50%
[2H]c1nc2c(N)ncnc2n1C1OC(COP(=O)(O)OP(=O)(O)OP(O)(O)=S)C(O)C1O (stereo not shown) [C8-D ATPS]												inhibit	inhibition of AK1 compared with ATPS (AK1 [7]): significantly more inhibition
Nc1ncnc2c1ncn2[C@@H]1O[C@H](COP(=O)(O)OP(=O)(O)OP(=O)(O)O)[C@@H](O)[C@H]1O [C8D-ATP]	4.08	Allosteric sigmoidal	Fit ambiguous	Fit ambiguous	Michaelis-Menton	Fit ambiguous	Michaelis-Menton	0.92	Allosteric sigmoidal	Fit ambiguous	1.79		KIEvmax ([1]; KIE at maximum enzyme activity): 1; KIED ([1]; asymptote at Vmax): 1; KIED ([1]; low ATP concentrations): > 5; KIEvmax ([2]; KIE at maximum enzyme activity): 1; KIED ([2]; asymptote at Vmax): 1; KIED ([2]; low ATP concentrations): > 5; KIEvmax ([3]; KIE at maximum enzyme activity): 1; KIED ([3]; asymptote at Vmax): 1; KIED ([3]; low ATP concentrations): > 5; KIEvmax ([4]; KIE at maximum enzyme activity): 2; KIED ([4]; asymptote at Vmax): 0.5; KIED ([4]; low ATP concentrations): > 5; reduction in AK1 activity in the presence of deuterated ATP (AK1 [5]; high ATP concentrations): ≥ 50%; KIEvmax ([6]; KIE at maximum enzyme activity): 2; KIED ([6]; asymptote at Vmax): 0.5; KIED ([6]; low ATP concentrations): > 5; fit to kinetic model [6, 8]: Allosteric sigmoidal; fit to kinetic model ([6]; tested model: Michaelis-Menton): Fit ambiguous
Nc1ncnc2c1ncn2[C@@H]1O[C@H](COP(=O)(O)OP(=O)(O)OP(O)(O)=S)[C@@H](O)[C@H]1O [ATPS, Adenosine 5′-[γ-thio]triphosphate, reference compound]												inhibit	
